Test: gradient 5% acetonitrile 3 min, to 50% in 2 min, to 85% in 15 min, held 3 min, 100 µL/min
Conditions: column: Zorbax Extend-C18 2.1 x 50 mm; eluents: water / acetonitrile, 0.1% formic acid
In short: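 Values are retention times taken from adduct peaks that software picked and an analyst inspected. The pure standards were run as mixtures of ~100 molecules on HPLC linked to a quadrupole time-of-flight mass spectrometer, in positive and negative ionization mode. A Zorbax Extend-C18 column (2.1 × 50 mm, 1.8 μm) was used at 100 μL/min with water and acetonitrile, each including 0.1% formic acid.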

In order of rising RP-LC retention time:
1. CCCNc1cc(N2CCCC(CCC(=O)NCc3ccccn3)C2)ncn1 (stereo not given)  550 s
2. O=C1CC(NC(=O)c2cc(C3CC3)on2)CN1 (stereo not given)  563 s
3. CNC(=O)c1cc(N2CCCC2)nc2c(C)cccc12  567 s
4. COc1cc2ncc(C(=O)c3ccc(C)c(C)c3)c(N3CCN(C)CC3)c2cc1OC  570 s
5. COc1ccc(CNCCc2c(C)[nH]c3ccc(F)cc23)cc1OC  571 s
6. O=C(c1ccc(OC(F)(F)F)cc1)N1CCN(CCn2cccn2)CC1  582 s
7. COc1ccc(C(=O)Nc2cccc(-c3csc(C)n3)c2)nn1  586 s
8. Cc1cc(C)c2c(N(C)C)nc(C(=O)Nc3ccc(N4CCOCC4)cc3)nc2n1  595 s
9. O=C(NCC1(CO)CC1)c1ccccc1F  599 s
10. COc1cn(CC(=O)Nc2ccccc2C)c(CSc2nc(C)cs2)cc1=O  628 s
11. CCCN(Cc1ccccc1)Cc1cc(=O)n2cc(Cl)ccc2n1  649 s
12. O=C(Nc1nnc2n1CCS2)c1cc(Br)ccc1Cl  657 s
13. COCCN1CCC2(CC1)CN(Cc1ccc(C(C)C)cc1)Cc1ccccc1O2  667 s
14. O=C(NCc1ccc(Cl)cc1)C1CCN(c2cn[nH]c(=O)c2)CC1  669 s
15. Cc1ccc2nc(C(=O)NC(C)c3ccc(F)cc3)cn2c1 (stereo not given)  670 s
16. CCN1CCN(S(=O)(=O)c2ccc(Cl)c(-c3nnc(-c4ccccc4)o3)c2)CC1  702 s
17. Cc1ccc(NC(=O)Cn2nc3n(c2=O)CCCCC3)c(C)c1  703 s
18. CSc1ccccc1C(=O)NCC1CCN(C(=O)c2ccccc2F)CC1  704 s
19. O=C(Nc1ccc2nncn2c1)Nc1ccccc1Cl  718 s
20. CC(=O)N1CCc2cc(N3CC(C(=O)Nc4cc(F)ccc4Cl)CC3=O)ccc21 (stereo not given)  749 s
21. C=CCNC(=O)N1CCCN(C2=NS(=O)(=O)C(c3ccc(Cl)cc3)=C2C)CC1  761 s
22. COCC(=O)Nc1nc(-c2ccc3c(c2)N(C)C(=O)C(C)O3)cs1 (stereo not given)  770 s
23. O=C(NCCC1=CCCCC1)c1csc(Nc2ncccn2)n1  797 s
24. Cc1nc2cc(N3CC(C(=O)Nc4cccc(Br)c4)CC3=O)ccc2o1 (stereo not given)  805 s
25. CC1CN(C(=O)CSc2cn(CC(=O)N3CCCCC3)c3ccccc23)CC(C)O1 (stereo not given)  812 s
26. CC(C(=O)N1CCN(c2cc(-c3ccccc3)[nH]n2)CC1)c1ccccc1 (stereo not given)  824 s
27. CCC(C(=O)NCc1ccco1)n1nc(C)c2c(C)n(-c3ccccc3)nc2c1=O (stereo not given)  831 s
28. COc1ccc(-c2nc3ccc(Cl)cn3c2Nc2ccccc2C)cc1  832 s
29. CCc1cccc(NC(=O)Cn2c(=O)c3cc(C4CC4)nn3c3ncccc32)c1  844 s
30. CCOc1ccc(NC(=O)N2CCCC2c2cc(C)on2)cc1 (stereo not given)  854 s
31. COC(=O)C1=CN(c2cc(OC)ccc2OC)c2ccc(F)cc2S1(=O)=O  874 s
32. O=C(Nc1ccc(F)cc1F)c1cnc(-c2ccccc2)nc1-c1ccncc1  874 s
33. CC(C)Cn1ccc2c(cc(C(=O)Nc3ccccc3Br)n2C)c1=O  881 s
34. Cc1noc(-c2ccnc(-n3cnc(C(=O)NC(C)c4ccc(F)cc4)c3)c2)n1 (stereo not given)  885 s
35. O=C(Nc1cnc(-c2ccc(C(F)(F)F)cc2)nc1)C1CCOC1 (stereo not given)  888 s
36. O=C(Nc1ccc(C2(C(=O)NCc3ccc(F)c(Cl)c3)CCC2)cc1)C1CC1  903 s
37. COc1ccc(-c2ccnc3nc(Cc4ccc(F)cc4)nn23)c(F)c1  906 s
38. CCn1ccc2sc(C)c(C(=O)NCc3cccc(Br)c3)c2c1=O  918 s
39. COc1cccc(-c2noc(C3CCCN3C(=O)Nc3cccc(C#N)c3)n2)c1 (stereo not given)  927 s
40. CC1(C(=O)NC2CCCCC2)CN(S(=O)(=O)c2ccccc2)CC(=O)N1c1ccccc1F (stereo not given)  932 s
41. CC(C)OC(=O)CCC/C=C\C[C@@H]1[C@@H](/C=C/[C@@H](O)COc2cccc(C(F)(F)F)c2)[C@H](O)C[C@@H]1O  955 s
42. CC(C)C(=O)c1c(C(C)C)nn2ccccc12  1010 s
43. Cc1cc(C)nc(N2CCN(c3ccc(Cl)cc3)CC2)n1  1050 s
44. COC(=O)c1c(C)c(C(=O)C(C)N(Cc2ccc(F)cc2)C(=O)C2CCCC2)c(C)n1C (stereo not given)  1090 s
45. Cc1ccc(C)c(S(=O)(=O)N2CCCN(C)c3ccccc32)c1  1100 s
